Reference: ChEMBL document CHEMBL3627663, “Synthesis and evaluation of 1-hydroxy/methoxy-4-methyl-2-phenyl-1H-imidazole-5-carboxylic acid derivatives as non-purine xanthine oxidase inhibitors” (Eur J Med Chem, 2015)
pIC50: −log10 of the molar value.

Columns and labels:
[1] = target: T1, Xanthine dehydrogenase/oxidase (Bos taurus, UniProt P80457); test: Inhibition of bovine XO using xanthine as substrate after 120 mins by spectrophotometric analysis
[2] = target: T1, Xanthine dehydrogenase/oxidase; test: Inhibition of bovine XO at 10 ug/ml using xanthine as substrate after 120 mins by spectrophotometric analysis; conditions: cattle, 2 h
[3] = target: T1, Xanthine dehydrogenase/oxidase; test: Ratio of Febuxostat IC50 to compound IC50 for bovine XO; conditions: cattle
[4] = target: T1, Xanthine dehydrogenase/oxidase; test: Mixed-type inhibition of bovine XO using xanthine as substrate by Lineweaver-Burk plot analysis; conditions: cattle

T1 sequence (P80457 whole entry): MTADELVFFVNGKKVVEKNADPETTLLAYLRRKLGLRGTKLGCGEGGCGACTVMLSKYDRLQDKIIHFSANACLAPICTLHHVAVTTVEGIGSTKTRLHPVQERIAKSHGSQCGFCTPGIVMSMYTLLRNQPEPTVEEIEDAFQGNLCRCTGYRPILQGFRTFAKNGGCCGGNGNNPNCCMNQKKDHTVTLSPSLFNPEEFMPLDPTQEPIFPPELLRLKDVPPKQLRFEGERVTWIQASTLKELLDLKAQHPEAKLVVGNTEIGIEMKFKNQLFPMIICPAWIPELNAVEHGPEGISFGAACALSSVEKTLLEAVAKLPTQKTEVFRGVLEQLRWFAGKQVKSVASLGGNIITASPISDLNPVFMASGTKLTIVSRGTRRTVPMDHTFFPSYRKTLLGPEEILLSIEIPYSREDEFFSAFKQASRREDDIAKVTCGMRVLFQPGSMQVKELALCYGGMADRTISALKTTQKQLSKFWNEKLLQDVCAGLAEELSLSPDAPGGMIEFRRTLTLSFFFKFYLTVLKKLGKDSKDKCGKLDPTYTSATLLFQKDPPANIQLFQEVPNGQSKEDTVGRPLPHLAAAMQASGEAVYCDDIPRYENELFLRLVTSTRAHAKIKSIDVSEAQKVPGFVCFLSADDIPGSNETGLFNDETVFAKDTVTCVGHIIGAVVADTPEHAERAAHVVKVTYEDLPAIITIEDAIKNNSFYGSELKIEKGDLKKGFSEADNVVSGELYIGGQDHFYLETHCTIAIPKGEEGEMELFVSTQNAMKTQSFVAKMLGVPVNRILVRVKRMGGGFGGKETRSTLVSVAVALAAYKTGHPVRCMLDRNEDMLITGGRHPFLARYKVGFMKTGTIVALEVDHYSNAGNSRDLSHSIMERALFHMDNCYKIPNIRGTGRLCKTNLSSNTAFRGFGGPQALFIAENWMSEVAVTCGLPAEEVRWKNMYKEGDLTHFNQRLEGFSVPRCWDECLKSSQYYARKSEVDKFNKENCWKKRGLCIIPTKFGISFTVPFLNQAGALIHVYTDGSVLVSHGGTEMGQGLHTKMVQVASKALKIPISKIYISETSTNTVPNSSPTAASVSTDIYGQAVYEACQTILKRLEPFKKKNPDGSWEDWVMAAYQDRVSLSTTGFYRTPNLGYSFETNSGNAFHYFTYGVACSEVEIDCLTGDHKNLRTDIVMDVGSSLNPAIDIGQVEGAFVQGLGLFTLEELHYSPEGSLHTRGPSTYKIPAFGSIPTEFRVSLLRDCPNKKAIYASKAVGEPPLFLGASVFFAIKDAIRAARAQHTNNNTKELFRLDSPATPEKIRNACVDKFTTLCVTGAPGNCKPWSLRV

Row | SMILES | pIC50 [1] | inhibition (INH) [2] | Ratio IC50 [3] | inhibition (INH) ([1]; cattle, 2 h) | inhibition (INH) [4]
1 | Cc1nc(-c2ccc(OCCC(C)C)c(C#N)c2)n(O)c1C(=O)O | 7.52 | 91.25% | – | – | –
2 | COn1c(-c2ccc(OCc3ccc(C)cc3)c(C#N)c2)nc(C)c1C(=O)O | 5.96 | 86.72% | – | – | –
3 | CCCCCCCCOc1ccc(-c2nc(C)c(C(=O)O)n2O)cc1C#N | 5.92 | 88.17% | – | – | –
4 | CCCCOc1ccc(-c2nc(C)c(C(=O)O)n2OC)cc1C#N | – | 41.19% | – | – | –
5 | CCCOc1ccc(-c2nc(C)c(C(=O)O)n2O)cc1C#N | 6.89 | 89.77% | – | – | –
6 | CCCCCCOc1ccc(-c2nc(C)c(C(=O)O)n2O)cc1C#N | 7.52 | 92.51% | – | – | –
7 | CCCCCCCCOc1ccc(-c2nc(C)c(C(=O)O)n2OC)cc1C#N | – | 19% | – | – | –
8 | Cc1nc(-c2ccc(OCC(C)C)c(C#N)c2)sc1C(=O)O [FEBUXOSTAT] | – | 90.89% | – | – | –
9 | CCCOc1ccc(-c2nc(C)c(C(=O)O)n2OC)cc1C#N | – | 18.34% | – | – | –
10 | CCCCOc1ccc(-c2nc(C)c(C(=O)O)n2O)cc1C#N | 8.52 | 89.57% | 3.3 | – | –
11 | COn1c(-c2ccc(OC(C)C)c(C#N)c2)nc(C)c1C(=O)O | – | 32.91% | – | – | –
12 | CCC(C)Oc1ccc(-c2nc(C)c(C(=O)O)n2OC)cc1C#N (stereo not drawn) | 5.82 | 83.13% | – | – | –
13 | CCCCCCCOc1ccc(-c2nc(C)c(C(=O)O)n2OC)cc1C#N | – | 26.8% | – | – | –
14 | COc1ccc(-c2nc(C)c(C(=O)O)n2OC)cc1C#N | – | 10.68% | – | – | –
15 | CCCCCCCOc1ccc(-c2nc(C)c(C(=O)O)n2O)cc1C#N | 6.96 | 89.93% | – | – | –
16 | COn1c(-c2ccc(OCCC(C)C)c(C#N)c2)nc(C)c1C(=O)O | 5.10 | 59.55% | – | – | –
17 | CCCCCCOc1ccc(-c2nc(C)c(C(=O)O)n2OC)cc1C#N | 5.41 | 80.34% | – | – | –
18 | Cc1nc(-c2ccc(OCC(C)C)c(C#N)c2)n(O)c1C(=O)O | 8.22 | 94.08% | 1.7 | Dose-dependent effect | Active
19 | COn1c(-c2ccc(OCC(C)C)c(C#N)c2)nc(C)c1C(=O)O | – | 31.91% | – | – | –
20 | COc1ccc(-c2nc(C)c(C(=O)O)n2O)cc1C#N | 6.26 | 90.14% | – | – | –
21 | Cc1nc(-c2ccc(OC(C)C)c(C#N)c2)n(O)c1C(=O)O | 6.77 | 91.04% | – | – | –
22 | Cc1ccc(COc2ccc(-c3nc(C)c(C(=O)O)n3O)cc2C#N)cc1 | 6.96 | 91.65% | – | – | –
23 | CCC(C)Oc1ccc(-c2nc(C)c(C(=O)O)n2O)cc1C#N (stereo not drawn) | 8.52 | 88.33% | 3.3 | – | –
